Entries after “also recorded” stand apart in the source; their conditions may differ. Structures can show the parent of a compound that is named as a salt. Where two headings read alike, the source gives them in different places.
Experiments:
Format in all cases: biochemical
Thrombin [1] = molecular target: T1, Thrombin (Homo sapiens, UniProt P00734); assay: Kinetic progress curves (kapp, K1, KI*, mechanism); settings: for Ki / Thrombin kapp: mean ± SD; for Thrombin kapp: apparent second-order rate constant from progress curves; for Thrombin mechanism of inhibition: defined by the progress curves: slow-binding (Rev.) or irreversible (Irrev.)
T1 construct: purchased R&D
Experimental: Because the compounds described in this paper were previously described as irreversible inhibitors, the IC50 value is inversely correlated with the second-order rate constant of inactivation. For a simple pseudo-first-order inactivation process, the activity after incubation with inhibitor (vi) varies with the inhibitor concentration (i), as described in the following equation: vi=v0·e^−kit where v0 is the activity in the absence of an inhibitor, k is the second-order rate constant of inactivation, and t is the time. The inactivation rate constant was determined from the time course of inhibition.
Kinetic assays were performed in the following manner. The inhibitor was mixed with the substrate, and the buffer solution with the enzyme was added at the time zero. The progress curves show the release of pNA or AMC as a function of time. Initially, no inhibitor is bound to the enzyme, and the tangent to the progress curve (dA/dt) is proportional to the free enzyme concentration. The free enzyme concentration decreases over time due to inhibitor binding kinetics, as described above. Progress curves were recorded in pseudo-first-order conditions ([I]0>>[E]0) and with less than 10% conversion of the substrate during the entire time course. In these conditions, dA/dt decreases exponentially with time. The progress curves were fitted with the integrated rate equation with GraFit7 to yield a value for kobs, a pseudo-first-order rate constant. At=Ao+vs∙t+vi−vs∙1−e^−kobs∙t/kobs where At is the absorbance at time t, A0 is the absorbance at time zero, vi is the initial rate and vs is the velocity at the steady-state.
The apparent second-order rate constant (kapp) was calculated from the slope of the linear part of the plot of kobs vs. the inhibitor concentration ([I]0). In the case of competition between the inhibitor and the substrate, kapp is smaller than the “real” second-order rate constant k discussed above because a certain fraction of the enzyme is present as an enzyme-substrate complex. kapp depends on the substrate concentration used in the experiment, as described by [Lambeir et al. (1996)].
The apparent equilibrium constants were obtained from the following equations, vi/vo=1/1+I/K1; vS/vo=1/1+I/KI* where vi is the initial rate, vs is the steady-state velocity and vo is the uninhibited initial rate.

CatG = molecular target: T2, CatG (Homo sapiens, UniProt P08311); assay: Jump dilution, determination of inhibition type; parameters: Cathepsin G (cathepsin G human neutrophil, Sigma-Aldrich); purchased Sigma-Aldrich; settings: inhibitor at 10 times IC50, 15 min, diluted 10-fold or 100-fold; Rev./Irrev.
T2 sequence (P08311 21-255): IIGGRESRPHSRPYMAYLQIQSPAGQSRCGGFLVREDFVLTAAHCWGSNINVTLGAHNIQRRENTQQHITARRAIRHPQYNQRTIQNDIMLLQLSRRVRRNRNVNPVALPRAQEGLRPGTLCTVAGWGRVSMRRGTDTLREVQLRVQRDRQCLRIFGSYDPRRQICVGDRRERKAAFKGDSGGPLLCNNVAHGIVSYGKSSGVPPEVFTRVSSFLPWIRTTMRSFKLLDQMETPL
Experimental: (§1) The dissociation of the enzyme-inhibitor complex was monitored by substrate hydrolysis over time ([Joossens et al., 2006]).
(§2) Because ABPs are designed to be irreversible serine protease inhibitors, the IC50 is exclusively used as a first discriminatory evaluation. When an inhibitor is irreversible, its IC50 value not only depends on the substrate and enzyme concentration but also on the time of incubation with the enzyme before the reaction is started by adding the substrate. […] The progress curve in the presence of an irreversible inhibitor will show final velocities equal to zero (Figure 6C). In contrast, for a reversible inhibitor, progress curves have a non-zero final steady-state velocity (Figure 6A) ([McWhirter, 2021]). To corroborate the inhibitory mechanism of the compounds, jump-dilution assays were performed. These use an inhibitor concentration of 10-fold the IC50 for the incubation, and a posteriori, the reaction mixture is diluted 10-fold or 100-fold before adding the substrate. In the case of an irreversible inhibitor, enzymatic activity is not regained (Figure 6D), whereas, in the case of a reversible compound, a slow release of the inhibitor and a gradual increase of the enzymatic activity rate is observed (Figure 6B) ([Copeland, 2013]; [McWhirter, 2021]). The jump-dilution assays confirmed the behavior described by the progress curves.
(§3) 2.2.2 Jump dilution results
(§4) Supplementary Table 2. Jump dilution of selected alkyne and desthiobiotin probes against a panel of trypsin-like serine proteases. […]
(§5) # R R DtBa 3 tryptase Thrombin uPA CatG
(§6) 32b H Alk Irrev. Irrev. Rev. Irrev. Rev.
(§7) 45b DtB Irrev. Irrev. Rev. N.D. N.D.
(§8) 33b Alk Irrev. Irrev. Rev. Irrev. Rev.
(§9) 46b Cl DtB Irrev. Irrev. Rev. N.D. N.D.
(§10) 34b H Alk Rev. Rev. Rev. Irrev. Rev.
(§11) 50b DtB Rev. Rev. Rev. Irrev. Rev.
(§12) 35b Alk Rev. Rev. Rev. Irrev. Rev.
(§13) 52b NHCOMe DtB Rev. Rev. Rev. Irrev. Rev.
(§14) 36b Alk Rev. Rev. Rev. Irrev. Rev.
(§15) 54b Cl DtB Rev. Rev. Rev. Irrev. Rev.
(§16) 37b Alk Irrev. Irrev. N.D. Irrev. Irrev.
(§17) 55b H DtB Irrev. Irrev. N.D. Irrev. Irrev.
(§18) 38b Alk Irrev. Irrev. N.D. Irrev. Irrev.
(§19) 56b NHCOMe DtB Irrev. Irrev. N.D. Irrev. Irrev.
(§20) 39b Alk Irrev. Irrev. N.D. Irrev. Rev.
(§21) 57b Cl DtB Irrev. Irrev. N.D. Irrev. Rev.
(§22) 41b H Alk Irrev. Irrev. Irrev. N.D. N.D.
(§23) 31b Pro-Lys H Alk Irrev. Irrev. Irrev. Irrev. N.D. a Alk: ABP precursor bearing an alkyne; DtB: desthiobiotin probe b Panel of serine proteases abbreviations: urokinase plasminogen activator (uPA), cathepsin G (catG) N.D.: IC50 is greater than 10µM, and jump dilution was not performed
(§24) 2.2.3 Progress curves and Jump dilution experiments
(§25) Kinetic assays were performed in the following manner. The inhibitor was mixed with the substrate, and the buffer solution with the enzyme was added at the time zero. The progress curves show the release of para-nitroaniline (pNA) or 7-amino-4-methyl coumarin (AMC) as a function of time.
(§26) To monitor the dissociation of the inhibitor-enzyme, aliquots of the enzyme were incubated at 37 °C without and with the inhibitor at a concentration 10 times higher than its IC 50. The enzyme […]
(§27) min, the aliquots were diluted 10-fold or 100-fold into the substrate concentration and assay buffer used for the IC50 determination. The dissociation of the enzyme-inhibitor complex was monitored by substrate hydrolysis over time. Blue lines represent the control where no inhibitor was present. Pink lines represent the assay with inhibitor.

Thrombin [2] = molecular target: T1, Thrombin; assay: Jump dilution, determination of inhibition type; settings: inhibitor at 10 times IC50, 15 min, diluted 10-fold or 100-fold; Rev./Irrev.
Experimental: as §1, §2, §3, §4, §5, §6, §7, §8, §9, §10, §11, §12, §13, §14, §15, §16, §17, §18, §19, §20, §21, §22, §23, §24, §25, §26, §27

[3] = Thrombin KI*, apparent equilibrium constant of the overall process
[4] = Thrombin K1, apparent equilibrium constant of the first step of slow-binding
[5] = read-out: Thrombin K1, apparent equilibrium constant of the first step of slow-binding
[6] = read-out: Thrombin KI*, apparent equilibrium constant of the overall process

| SMILES | Ki (Thrombin [1]; [3]) [nM] | Thrombin kapp (Thrombin [1]) | Thrombin mechanism of inhibition (Thrombin [1]) | CatG jump dilution result (CatG) | Thrombin jump dilution result (Thrombin [2]) | Ki (Thrombin [1]; [4]) [nM] | Ki (Thrombin [1]; [5]) [nM] | Ki (Thrombin [1]; [6]) [nM] |
| --- | --- | --- | --- | --- | --- | --- | --- | --- |
| C[C@@H]1NC(=O)N[C@@H]1CCCCCC(=O)NCCOCCOCCOCCn1cc(CCCOC(=O)NC(Cc2ccc(NC(=N)N)cc2)P(=O)(Oc2ccccc2)Oc2ccccc2)nn1 (stereo partly drawn) [50b, 3-(1-(18-((4R,5S)-5-methyl-2-oxoimidazolidin-4-yl)-13-oxo-3,6,9-trioxa-12-azaoctadecyl)-1H-1,2,3-triazol-4-yl)propyl (1-(diphenoxyphosphoryl)-2-(4-guanidinophenyl)ethyl)carbamate trifluoroacetate salt] | 1550 ± 250 | 47 ± 5 M⁻¹ s⁻¹ | Rev. | Rev. | Rev. |  |  |  |
| C#CCCCOC(=O)NC(CCCNC(=N)N)P(=O)(Oc1ccccc1)Oc1ccccc1 (stereo not drawn) [32b] | 450 ± 30 | 64 ± 8 M⁻¹ s⁻¹ | Rev. | Rev. | Rev. | 22600 ± 5000 |  |  |
| CC(=O)Nc1ccc(OP(=O)(Oc2ccc(NC(C)=O)cc2)C(NC(=O)OCCCc2cn(CCOCCOCCOCCNC(=O)CCCCC[C@H]3NC(=O)N[C@H]3C)nn2)c2ccc(NC(=N)N)cc2)cc1 (stereo partly drawn) [56b] |  |  |  | Irrev. |  |  |  |  |
| C[C@@H]1NC(=O)N[C@@H]1CCCCCC(=O)NCCOCCOCCOCCn1cc(CCCOC(=O)NC(Cc2ccc(NC(=N)N)cc2)P(=O)(Oc2ccc(Cl)cc2)Oc2ccc(Cl)cc2)nn1 (stereo partly drawn) [54b] | 60 ± 6 |  | * ^d Rev. | Rev. | Rev. |  |  |  |
| C#CCCCOC(=O)NC(Cc1ccc(NC(=N)N)cc1)P(=O)(Oc1ccccc1)Oc1ccccc1 (stereo not drawn) [34b] | 4930 ± 510 | 17 ± 1 M⁻¹ s⁻¹ | Rev. | Rev. | Rev. | 134000 ± 26000 |  |  |
| C#CCCCOC(=O)NC(CCCNC(=N)N)P(=O)(Oc1ccc(Cl)cc1)Oc1ccc(Cl)cc1 (stereo not drawn) [33b] | 280 ± 40 | 11 × 10^2 ± 42 M^−1 s^−1 | reversible inhibition and Rev. | Rev. | Rev. | 4130 ± 700 |  |  |
| C[C@@H]1NC(=O)N[C@@H]1CCCCCC(=O)NCCOCCOCCOCCn1cc(CCCOC(=O)NC(CCCNC(=N)N)P(=O)(Oc2ccc(Cl)cc2)Oc2ccc(Cl)cc2)nn1 (stereo partly drawn) [46b] |  | 63 × 10^2 ± 290 M^−1 s^−1 | Rev. |  | Rev. |  | 950 ± 200 | 70 ± 9 |
| C[C@@H]1NC(=O)N[C@@H]1CCCCCC(=O)NCCOCCOCCOCCn1cc(CCCOC(=O)NC(c2ccc(NC(=N)N)cc2)P(=O)(Oc2ccc(Cl)cc2)Oc2ccc(Cl)cc2)nn1 (stereo partly drawn) [57b] |  |  |  | Rev. |  |  |  |  |
| CC(=O)Nc1ccc(OP(=O)(Oc2ccc(NC(C)=O)cc2)C(Cc2ccc(NC(=N)N)cc2)NC(=O)OCCCc2cn(CCOCCOCCOCCNC(=O)CCCCC[C@H]3NC(=O)N[C@H]3C)nn2)cc1 (stereo partly drawn) [52b] | 620 ± 80 | 49 ± 5 M⁻¹ s⁻¹ | Rev. | Rev. | Rev. |  |  |  |
| C#CCCCOC(=O)NC(c1ccc(NC(=N)N)cc1)P(=O)(Oc1ccc(Cl)cc1)Oc1ccc(Cl)cc1 (stereo not drawn) [39b, Pent-4-yn-1-yl ((bis(4-chlorophenoxy)phosphoryl)(4-guanidinophenyl)methyl)carbamate] |  |  |  | Rev. |  |  |  |  |
| C#CCCCOC(=O)NC(Cc1ccc(NC(=N)N)cc1)P(=O)(Oc1ccc(NC(C)=O)cc1)Oc1ccc(NC(C)=O)cc1 (stereo not drawn) [35b] | 630 ± 40 | 128 ± 5 M⁻¹ s⁻¹ | Rev. | Rev. | Rev. | 32700 ± 4000 |  |  |
| C#CCCCOC(=O)NC(Cc1ccc(NC(=N)N)cc1)P(=O)(Oc1ccc(Cl)cc1)Oc1ccc(Cl)cc1 (stereo not drawn) [36b] | 30 ± 2 | 251 ± 16 M⁻¹ s⁻¹ | Rev. | Rev. | Rev. | 9030 ± 500 |  |  |
| C#CCCCOC(=O)NC(C1CCN(C(=N)N)CC1)P(=O)(Oc1ccccc1)Oc1ccccc1 (stereo not drawn) [41b] |  | 41 × 10^2 ± 38 M^−1 s^−1 | irreversible inhibition; also recorded: Irrev |  | Irrev. |  |  |  |
| C#CCCCOC(=O)NC(c1ccc(NC(=N)N)cc1)P(=O)(Oc1ccccc1)Oc1ccccc1.O=C(O)C(F)(F)F (stereo not drawn) [37b, Pent-4-yn-1-yl ((diphenoxyphosphoryl)(4-guanidinophenyl)methyl)carbamate trifluoroacetate salt] |  |  |  | Irrev. |  |  |  |  |
| C[C@@H]1NC(=O)N[C@@H]1CCCCCC(=O)NCCOCCOCCOCCn1cc(CCCOC(=O)NC(CCCNC(=N)N)P(=O)(Oc2ccccc2)Oc2ccccc2)nn1 (stereo partly drawn) [45b] |  | 19 ± 2 M⁻¹ s⁻¹ | Rev. |  | Rev. |  | 9970 ± 1000 | 1140 ± 110 |
| C#CCCCOC(=O)NC(c1ccc(NC(=N)N)cc1)P(=O)(Oc1ccc(NC(C)=O)cc1)Oc1ccc(NC(C)=O)cc1 (stereo not drawn) [38b, Pent-4-yn-1-yl ((bis(4-acetamidophenoxy)phosphoryl)(4-guanidinophenyl)methyl) carbamate] |  |  |  | Irrev. |  |  |  |  |
| C[C@@H]1NC(=O)N[C@@H]1CCCCCC(=O)NCCOCCOCCOCCn1cc(CCCOC(=O)NC(c2ccc(NC(=N)N)cc2)P(=O)(Oc2ccccc2)Oc2ccccc2)nn1 (stereo partly drawn) [55b] |  |  |  | Irrev. |  |  |  |  |
